Measurements published in US20240423976A1, “COMPOSITIONS AND METHODS FOR TREATING THERAPEUTIC-INDUCED TOXICITIES” (THE BOARD OF REGENTS OF THE UNIVERSITY OF OKLAHOMA, priority 2023, published 2024).
Values belong to the molecule of their own block, whether it stands above or below them.

What was measured:
HEI-OC1 cells [1] = test: Cellular internalization study of C6-cHy-NPs with pathway inhibitors and over time; assay type: cell-based; conditions: 40 μg/mL inhibitor, 1 h pre-incubation
Procedure: First, blank cHy-NPs (cHy-NPs, without FL or HK encapsulation) were prepared as described below. In, 1 mL colloidal solution of cHy-NPs, 1 mg coumarin-6 (C-6) was added and the mixture was stirred at 200 rpm overnight at room temperature. The NP solution was then centrifuged at 2000 rpm for 5 min to remove unloaded C-6. The supernatant containing C-6-cHy-NPs was transferred to a fresh microcentrifuge tube. The HEI-OC1 (House Ear Institute-Organ of Corti 1) cells were seeded in 96 well plate (10000 cells per well) overnight. After washing with fresh growth media, the media (100 μL) containing 40 μg/mL CPZ, MβCD, GNT, or AML was added to separate columns (2 columns kept untreated as a control group). After 1 h of incubation at 33° C. (5% CO2), 2.5 μL of C6-cHy-NPs (10× diluted with media) were added to each well. The plate was incubated for 4 h and the cells were washed using PBS. After adding fresh PBS, the fluorescence intensity of each well was recorded using a multi-well plate fluorescence spectrophotometer (Synergy 2, BioTek, USA) at λex/em 460/505. In another experiment to confirm the effect of various inhibitors, the cells (20000 per well) were seeded overnight, and incubated with different concentrations (0, 2.5, 5, 10, 20, 30, 40, 50, and 75 μg/mL) of MβCD, GNT, or AML. After treatment, incubation, and washing, the fluorescence intensity of each well was recorded as described above. Furthermore, to study the time of cellular internalization the cells (20000 per well) were treated with C-6-cHy-NPs (5 μL, 10× diluted), and the fluorescence of the samples was recorded after washing at different time intervals (0.25, 0.5, 1, 2, 3, 4, 5, 6, 8, 10, 24, and 48 h) of incubation. For microscopy analysis, the cells were seeded in a 6 well plate (1×10^5 cells/well) and incubated overnight. The next day, cells were washed and in each well media containing C-6-cHy-NPs was added. At different time intervals (0.5, 1, 2, 3, 4, and 5 h), the cells of a well were washed using PBS and analyzed under the fluorescence microscope using a 20× lens (Revolve, Discover Echo Inc., San Diego, CA, USA) at λex 460 nm. Counterstain Hoechst 33342 (1 μg/mL, 10 min incubation in the dark, λex 350 nm) was used.

[2] = In vitro drug release kinetics from thermoresponsive hydrogel (Korsmeyer-Peppas model); assay type: physicochemical; conditions: PBS pH 7.4; for release from the hydrogel: in 48 h at 25° C.; for maximum release from the hydrogel: in one month at 37° C.
Procedure: Two 24 well plates were taken equipped with 6.5 mm inserts (Transwell®, Costar, Corning, NY, USA) having 8 µm pores polycarbonate support membrane six in each plate. The developed hydrogel formulations containing FL-cHy-NPs and HK-cHy-NPs were filled in the inserts (n=3, in each plate and each formulation). One plate was placed at 37° C. while the other one was kept at 25° C. After 30 min, the receiver media (1 mL, PBS pH 7.4) was filled in each well-containing insert. Other wells were filled with deionized water to maintain humidity in the plate. […] The drug content (FL and HK) was extracted using DCM; solvent-solvent extraction. After evaporating the DCM, the extracted FL and HK content was dissolved in methanol (100 μL, 100% LC-MS grade). The drug quantification of FL and HK in each sample was done using HPLC using the same procedure described above. The release kinetics of FL and HK from both hydrogels were calculated using the Korsmeyer-Peppas model (eq 7). where, Mt is the mass of the drug released at time t; […]

neuromast hair cells = test: Otoprotection studies on zebrafish (cisplatin ototoxicity); assay type: in vivo; conditions: 5-6 dpf fish; 33, 17, 2 mM alone or 17+17, 8.5+8.5, 3+3 mM; cisplatin 400 mM, 6 hours
Procedure: Fish were maintained at 28.5° C. in E3 media with a 14-hour light/10-hour dark cycle. Otoprotection studies were performed in 5-6 dpf wild type (TuAB) fish as previously described [2]. Briefly, fish were pre-incubated for one hour in E3 media containing FL, HK or FL+HK and then co-incubated for 6 hours with the corresponding cytoprotective molecules and clinical cisplatin 400 mM. Concentrations were as follow: FL or HK=33 mM, 17 mM and 2 mM; FL+HK=17+17 mM, 8.5+8.5 mM and 3+3 mM. Fish were also incubated with empty NPs as control. After the treatment, fish were transferred to fresh E3 media for one hour to recover, followed by fixation (4% PFA) and processing for confocal imaging. For the detection of neuromast hair cells, fish were immunostained for the hair cell marker, otoferlin (HCS-1, DSHB, 1:200 dilution). Hair cells were manually counted using a Zeiss AxioSkop 2 fluorescence microscope. The neuromasts inspected were part of the cranial system and included the otic, middle, and opercular neuromasts. Ten to twelve fish were used per treatment. Confocal imaging was performed using a Zeiss LSM 700 confocal laser scanning image system. Images were captured at room temperature with automatically set sectioning and processed with ZEN black edition software. Z-stacks are presented as flat Z-projections.

HEI-OC1 cells [3] = test: Intracellular ROS generation (DCFH2-DA); assay type: cell-based
Procedure: (§1) The HEI-OC1 Cells (10000 cells/well in 96-well plates) were treated with various treatment groups as described above in the cell cytotoxicity study section. The endpoints for ROS generation, apoptosis, and necrosis studies were set up at 24, 36, and 48 h, respectively. For ROS generation study, the cells were washed two times with fresh media and then culture media containing DCFH2DA reagent (10 μM) was added to each well. After 30 min incubation in dark at 33° C. (5% CO2) the cells were washed with PBS three times. Fresh PBS (100 μL) was added and the fluorescence was recorded at λex/em 480/530 nm using a multi-well plate fluorescence spectrophotometer (Synergy 2, BioTek, USA). […] After washing, the fluorescence was recorded at λex/em 480/530 nm using a multi-well plate fluorescence spectrophotometer (Synergy 2, BioTek, USA). […] After 15 min incubation in dark, the fluorescence was recorded at λex/em 530/615 nm using a multi-well plate fluorescence spectrophotometer (Synergy 2, BioTek, USA). The fluorescence microscopy analysis of ROS generation, apoptosis, and necrosis experiments was performed. […] The cells were observed under the fluorescence microscope using a 20× lens at the respective dye fluorescence filter as described above. For HOECHST-33342 λex/em 350/460 nm fluorescence filter was used.

HEI-OC1 cells [4] = test: MitoSOX mitochondrial superoxide assay; assay type: cell-based; conditions: MitoSOX fluorescence
caspase 3/7 [5] = test: Caspase 3/7 apoptosis assay; assay type: cell-based; conditions: HEI-OC1
Procedure: as §1

HEI-OC1 cells [6] = test: PI staining necrosis / cell death assay; assay type: cell-based; conditions: 48 h; pre-treatment then CisPt; CisPt row is CisPt only
Procedure: as §1

caspase 3/7 [7] = test: Caspase 3/7 activation in CisPt-exposed cells (FLICA, fluorescence microscopy), Example 1; assay type: cell-based; conditions: CisPt-exposed HEI-OC1 cells
Procedure: Novel dual stimuli-responsive nanoformulations have been investigated for the synthesis of ROS-responsive polymers, and thermo-responsive polymers and their characterization using ^1H NMR. Drug loaded NCs comprising BUC and/or DLT in micelles of PPS-mPEG2000 were prepared by nanoprecipitation methods. The BUC-PPS-mPEG2000-NCs and DLT-PPS-mPEG2000-NCs were characterized using DLS and NTA and TEM images. The EE % and DL % of NCs were determined using HPLC and Ellman's assays. The long-term storage stability over two months was checked by using DLS for size and PDI. In vitro assessments were performed on the HEIOC1 cell lines for MTT and Live-dead cell assays for biocompatibility and cellular uptake analysis, respectively. The cytoprotective effect of BUC-NCs, DLT-NCs and BUC/DLT-PPS-mPEG2000-NCs, were studied after treating with various regimens and different concentration with and without cisplatin. The ROS-Scavenging effect nanoformulation was confirmed by the DCFH-DA assay, and FLICA assays. The final formulation, named NanoSensoGel, comprising a combination of a thermo-responsive P407 hydrogel, and the ROS-responsive BUC/DLT loaded PPS-mPEG2000-NCs, was characterized for its bio-responsiveness, a novel method was established to perform the in vitro drug release, and release kinetics mechanism were studied for dual drug release.

Molecule: N=C(N)NC(=O)c1nc(Cl)c(N)nc1N [AML, Amiloride]
- effect of pathway inhibitor pretreatment on cellular internalization of C6-cHy-NPs (HEI-OC1 cells [1]): no significant change in the cellular internalization

- release from the hydrogel [2]: ~60%
- maximum release from the hydrogel [2]: ~50%
Molecule: C=CCc1ccc(O)c(-c2ccc(O)c(CC=C)c2)c1 [HK, Honokiol]
- protection of neuromast hair cells against cisplatin-induced ototoxicity (neuromast hair cells): prevented hair cell loss

Molecule: CN(C)CCCN1c2ccccc2Sc2ccc(Cl)cc21 [CPZ, Chlorpromazine]
- effect of pathway inhibitor pretreatment on cellular internalization of C6-cHy-NPs (HEI-OC1 cells [1]): significantly reduced cellular internalization

Molecule: O=S([O-])([O-])=S.[Na+].[Na+] [STS, Sodium thiosulphate]
- ROS generation compared to CisPt-only treated cells (HEI-OC1 cells [3]; 24 h post CisPt addition): did not show a significant ROS generation
- ratio of normalized intensities of total cells and DCF-stained cells (HEI-OC1 cells [3]; fluorescence microscopy, pre-treatment then CisPt, CisPt row is CisPt only): 1.53±0.23
- mitochondrial superoxide compared to CisPt-only treated cells (HEI-OC1 cells [4]): significantly reduced mitochondrial superoxide
- caspase 3/7 activation compared to CisPt only treated cells (caspase 3/7 [5]): significantly reduced signals of caspase 3/7 activation
- ratio of normalized intensities of total cells and PI-stained cells (HEI-OC1 cells [6]): 2.03±0.02

- release from the hydrogel [2]: ~60%
- maximum release from the hydrogel [2]: ~50%
Molecule: Fc1ccc(C(c2ccc(F)cc2)N2CCN(C/C=C/c3ccccc3)CC2)cc1 [FL, Flunarizine]
- protection of neuromast hair cells against cisplatin-induced ototoxicity (neuromast hair cells): prevented hair cell loss

Molecule: methyl-β-cyclodextrin [MβCD]
- effect of pathway inhibitor pretreatment on cellular internalization of C6-cHy-NPs (HEI-OC1 cells [1]): no significant change in the cellular internalization

Molecule: CC(C)(S)C(=O)N[C@@H](CS)C(=O)O [BUC, bucillamine]
- inhibition of caspase 3/7 activation (caspase 3/7 [7]): highly responsible for the inhibition of the caspase 3/7 activation

Molecule: O=c1c(-c2ccc(O)cc2)coc2cc(O)cc(O)c12 [GNT, Genistein]
- effect of pathway inhibitor pretreatment on cellular internalization of C6-cHy-NPs (HEI-OC1 cells [1]): no significant change in the cellular internalization
